This is an account of results in PubChem BioAssay (NCI).

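Results reflect a 48-hour exposure of cells in 96-well plates to compound at five concentrations. Definition used: TGI = concentration required for complete inhibition of growth.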 *1 amine or outer side, *2 acyl side, *3 side chain or, on linkers, in order; H or OH if unused. Where a SMILES comes first, the peptide text is derived from it. [ ]: non-standard residue; d: D form. The star is where a group is joined. X31 = CC(=O)N(C)SCC(N[*:1])C(=O)[*:2]; Cbz = O=C(OCc1ccccc1)*; Bn = c1ccc(C*)cc1; For = O=C*

Common to all, as to assay: NCI-60 cell line screen, 48 h
For experiment [1], the system named is ACHN renal.
The subject of experiment [2] is BT-549 breast.
Experiment [3] has as its system EKVX NSCLC.
The subject of experiment [4] is HCC-2998 colon.
The subject of experiment [5] is HOP-62 NSCLC.
Experiment [6] concerns HT29 colon.
Experiment [7] deals with M14 melanoma.
The subject of experiment [8] is MCF7 breast.
Experiment [9] has as its system MOLT-4 leukemia.
The subject of experiment [10] is NCI-H226 lung.
The subject of experiment [11] is PC-3 prostate.
In experiment [12] the test system is RPMI-8226 leukemia.
Experiment [13] concerns SF-268 CNS.
Experiment [14] deals with SF-295 CNS.
In experiment [15] the test system is SK-OV-3 ovarian.
The subject of experiment [16] is SNB-19 CNS.
Experiment [17] deals with T-47D breast.
For experiment [18], the system named is UACC-62 melanoma.
Experiment [19] deals with UO-31 renal.

With `O=C1/C(=C\c2ccc(O)cc2)CCC/C1=C/c1ccc(Cl)c(Cl)c1`, the TGI came out at 12.1 µM in [1]; 7.49 µM in experiment [2]; 20 µM in experiment [3]; 5.94 µM in [4]; 16.1 µM in experiment [5]; 3.54 µM in experiment [6]. Besides, the TGI in experiment [7] was determined as 5.44 µM; in experiment [8] it was 14.9 µM; in experiment [9] it was 5.8 µM; in [10] it was 15.5 µM; in [11], 12.7 µM; in [12], 5.76 µM. Also, the TGI in experiment [13] was determined as 11.9 µM; in experiment [14], 10.1 µM; in experiment [15] it was 17 µM; in experiment [16], 18.3 µM; in [17] it was 33.3 µM; in experiment [18], 5.24 µM. This molecule also yielded a TGI in experiment [19] of 5.6 µM.
For `O=C1C(Cl)C2(CC(/C=C/c3ccccc3Cl)=NN2c2cccc(S(=O)(=O)O)c2)N1c1nc2ccccc2s1` (stereo unspecified), the TGI in [1], in [2], in [3], in experiment [4], in [6] and in experiment [7] was more than 100 µM each time. Further, the TGI was more than 100 µM in experiment [8]; more than 100 µM in [9]; more than 100 µM in experiment [10]; more than 100 µM in [11]; 89.9 µM in experiment [12]; more than 100 µM in experiment [13]. In addition, the TGI in [16] was more than 100 µM; in experiment [17] it was more than 100 µM; in experiment [18], more than 100 µM; in [19] it was 16.3 µM.
In the case of `Cc1cc2ccccc2n2c1nc1ccccc12`, the TGI in experiment [1], in experiment [2], in experiment [3], in experiment [4], in [5] and in [6] was more than 100 µM each time. Also, the TGI in experiment [7], in experiment [8], in experiment [9], in [10], in [11] and in experiment [12] was more than 100 µM in each case. Besides, the TGI in experiment [13], in experiment [14], in [15], in experiment [16], in [17] and in experiment [18] was more than 100 µM in each case. The molecule also gave a TGI in experiment [19] of more than 100 µM.
In the case of `O=C(NC1=NCC(CN2CCN(c3ccccc3)CC2)O1)Nc1ccccc1` (stereo unspecified), the TGI in experiment [1], in [2], in experiment [3], in experiment [4], in experiment [5] and in experiment [6] was more than 100 µM in each case. Further, the TGI in experiment [7], in experiment [8], in [9], in experiment [10], in experiment [11] and in experiment [12] was more than 100 µM in each case. The TGI in experiment [13], in experiment [14], in [15], in [16], in [17] and in experiment [18] was more than 100 µM in each case. Also, the TGI in experiment [19] was more than 100 µM.
Regarding `C=CCN1C(=O)/C(=C/c2ccc(OC)cc2)N=C1SC/C=C/C`, the TGI in experiment [1], in experiment [2], in [3], in [4], in experiment [5] and in experiment [6] was more than 100 µM in each case. In addition, the TGI was more than 100 µM in experiment [7]; more than 100 µM in [8]; 66.7 µM in [9]; more than 100 µM in experiment [10]; more than 100 µM in experiment [11]; more than 100 µM in [12]. For the same molecule, the TGI in experiment [13] is more than 100 µM; in experiment [14], more than 100 µM; in experiment [15], more than 100 µM; in experiment [16], more than 100 µM; in experiment [17] it was 94.2 µM; in experiment [18] it was more than 100 µM. Further, the TGI in experiment [19] was more than 100 µM.
As for `CC(=O)N(C)SCC(NC(=O)C(Cc1ccccc1)NC(=O)OCc1ccccc1)C(=O)NC(Cc1ccccc1)C(=O)NC(Cc1cn(C=O)c2ccccc12)C(=O)NC(CCCCNC(=O)OCc1ccccc1)C(=O)NC(C(=O)NC(CSN(C)C(C)=O)C(=O)NC(C(N)=O)C(C)OCc1ccccc1)C(C)OCc1ccccc1` (stereo unspecified) (Cbz-F[X31]FW(For)K(Cbz)T(Bn)[X31]T(Bn)-NH2; configuration not given here), the TGI in experiment [1] is more than 100 µM; in experiment [2], 68.1 µM; in experiment [3] it was more than 100 µM; in [4], more than 100 µM; in experiment [5], more than 100 µM; in [6] it was more than 100 µM. Also, the TGI in experiment [7], in experiment [8], in [9], in experiment [10], in experiment [11] and in experiment [12] was more than 100 µM each time. Moreover, the TGI is more than 100 µM in experiment [13]; more than 100 µM in experiment [14]; 96.1 µM in [15]; 51.7 µM in [16]; more than 100 µM in experiment [17]; more than 100 µM in [18]. The molecule further showed a TGI in experiment [19] of more than 100 µM.
Turning to `O=c1c2c(oc3ccccc13)-c1ccccc1OC2`, the TGI in [1], in experiment [2], in experiment [3], in [4], in [5] and in experiment [6] was more than 100 µM in each case. For the same molecule, the TGI in [7], in experiment [8], in [9], in experiment [10], in experiment [11] and in [12] was more than 100 µM in each case. The TGI in [13] was more than 100 µM; in experiment [14] it was more than 100 µM; in experiment [15], 53.2 µM; in experiment [17] it was more than 100 µM; in experiment [18] it was more than 100 µM; in experiment [19], more than 100 µM.
In the case of `Cc1ccc2c(c1)[nH]c(=S)n2/C=C1\C(=O)Oc2ccccc2C1=O`, the TGI in experiment [1], in experiment [2], in experiment [4], in [5], in [6] and in [7] was more than 100 µM each time. Besides, the TGI in [8], in experiment [9], in experiment [10], in experiment [11], in experiment [12] and in experiment [13] was more than 100 µM in each case. Also, the TGI in [14], in [16], in [17], in [18] and in [19] was more than 100 µM in each case.
